The values that follow come from patent publication US20200262877A1, “ION CHANNEL-BINDING PEPTIDES AND METHODS OF USE THEREOF” (priority 2017, published 2020).

One series has as its target hERG (Homo sapiens, UniProt Q12809). Description: in vitro. The conditions noted are these: 0.2 or 20 μM; FIG. 2. The method in brief: (§1)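 Peptides were tested in duplicate at final 20 μM and 200 nM, with concentration set by amino acid analysis, in HEPES-buffered saline. They were applied for at least 5 min to HEK293 or CHO cells transfected with each channel. Currents were expressed as % inhibition, 1-(Ipeptide/Icontrol)×100, or % activation, Ipeptide/Icontrol×100, against a channel-matched reference compound.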

Series [1] concerns the target T1, Kv1.3 (Homo sapiens, UniProt P22001).
T1 construct: host or cells: HEK293 or CHO
Description: cell-based. Type of series: cell-based. As to conditions: for activity at 20 µM: peptide at 20 μM. The method in brief:
as §1

The target in series [2] is Nav1.7 sodium channel (human SCN9A gene) (Homo sapiens, UniProt Q15858). Description: cell-based. More on the design: expressed in transfected cells; host or cells: CHO cells. As to conditions: human Nav1.7 in CHO cells.
The target of series [3] is T2, Nav1.5 cardiac sodium channel (human SCN5A gene) (Homo sapiens, UniProt Q14524). As to conditions: read-out: IC50 Nav1.5 ion channel inhibition, TP2; human Nav1.5 in CHO cells; TP2 (inactivated state inhibition).
T2 sequence (Q14524 whole entry): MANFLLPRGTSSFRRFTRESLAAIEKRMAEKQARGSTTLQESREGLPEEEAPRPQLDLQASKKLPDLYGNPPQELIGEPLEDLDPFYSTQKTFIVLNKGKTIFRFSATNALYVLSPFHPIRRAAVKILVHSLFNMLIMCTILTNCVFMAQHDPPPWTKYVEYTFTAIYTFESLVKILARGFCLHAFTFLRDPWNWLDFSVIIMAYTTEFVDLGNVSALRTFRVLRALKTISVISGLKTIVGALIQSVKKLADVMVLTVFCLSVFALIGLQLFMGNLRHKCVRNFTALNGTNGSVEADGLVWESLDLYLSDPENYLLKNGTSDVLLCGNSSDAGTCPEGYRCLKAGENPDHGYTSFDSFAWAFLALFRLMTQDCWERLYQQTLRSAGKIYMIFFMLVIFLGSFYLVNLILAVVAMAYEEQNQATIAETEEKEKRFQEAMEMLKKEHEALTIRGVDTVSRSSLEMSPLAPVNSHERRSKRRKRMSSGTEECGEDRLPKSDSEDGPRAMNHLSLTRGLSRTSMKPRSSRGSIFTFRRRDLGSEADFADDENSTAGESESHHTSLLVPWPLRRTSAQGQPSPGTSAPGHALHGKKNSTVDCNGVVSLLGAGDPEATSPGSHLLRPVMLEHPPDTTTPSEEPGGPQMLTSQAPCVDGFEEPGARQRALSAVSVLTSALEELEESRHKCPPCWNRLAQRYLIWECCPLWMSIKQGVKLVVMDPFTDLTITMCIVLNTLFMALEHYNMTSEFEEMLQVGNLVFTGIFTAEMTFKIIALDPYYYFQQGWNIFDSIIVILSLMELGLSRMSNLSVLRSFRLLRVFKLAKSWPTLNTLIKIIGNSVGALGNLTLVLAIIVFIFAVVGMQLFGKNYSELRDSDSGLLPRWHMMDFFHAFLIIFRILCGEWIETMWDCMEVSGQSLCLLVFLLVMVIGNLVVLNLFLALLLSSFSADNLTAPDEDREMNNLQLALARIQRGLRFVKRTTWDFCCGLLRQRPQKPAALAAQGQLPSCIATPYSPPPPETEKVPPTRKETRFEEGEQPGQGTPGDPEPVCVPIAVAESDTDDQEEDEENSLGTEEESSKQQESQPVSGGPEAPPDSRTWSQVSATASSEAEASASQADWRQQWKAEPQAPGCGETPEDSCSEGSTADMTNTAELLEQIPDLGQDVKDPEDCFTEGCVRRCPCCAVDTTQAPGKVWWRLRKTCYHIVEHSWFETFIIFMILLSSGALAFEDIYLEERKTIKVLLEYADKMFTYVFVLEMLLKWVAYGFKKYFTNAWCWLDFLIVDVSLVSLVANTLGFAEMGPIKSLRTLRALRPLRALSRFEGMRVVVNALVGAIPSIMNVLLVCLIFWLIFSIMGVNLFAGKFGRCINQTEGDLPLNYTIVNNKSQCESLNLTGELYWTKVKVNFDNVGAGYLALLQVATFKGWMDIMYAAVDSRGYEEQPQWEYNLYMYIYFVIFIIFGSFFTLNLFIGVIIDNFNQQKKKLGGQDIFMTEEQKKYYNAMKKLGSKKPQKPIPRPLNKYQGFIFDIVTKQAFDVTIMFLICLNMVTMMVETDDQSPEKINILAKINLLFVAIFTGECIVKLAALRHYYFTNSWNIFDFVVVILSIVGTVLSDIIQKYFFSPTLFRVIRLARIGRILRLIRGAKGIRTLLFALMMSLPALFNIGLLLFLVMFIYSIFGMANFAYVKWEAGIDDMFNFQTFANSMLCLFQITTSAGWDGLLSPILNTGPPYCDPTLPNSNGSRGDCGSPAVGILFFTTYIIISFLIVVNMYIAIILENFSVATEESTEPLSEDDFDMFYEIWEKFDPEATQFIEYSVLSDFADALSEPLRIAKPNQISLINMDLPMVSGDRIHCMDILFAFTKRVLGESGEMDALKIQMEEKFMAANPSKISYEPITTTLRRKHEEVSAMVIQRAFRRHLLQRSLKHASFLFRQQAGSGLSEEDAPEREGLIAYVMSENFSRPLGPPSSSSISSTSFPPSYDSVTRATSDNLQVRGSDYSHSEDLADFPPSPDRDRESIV
For series [4], the target named is Kv1.5 potassium channel (human KCNA5 gene) (Homo sapiens, UniProt P22460). Description: cell-based. More on the design: host or cells: CHO. The conditions noted are these: human Kv1.5 in CHO cells.
For series [5], the target named is Kv1.3 potassium channel (human KCNA3 gene) (Homo sapiens, UniProt P22001). Description: cell-based. As to conditions: human Kv1.3 in CHO cells. More on the design: host or cells: CHO.
Kv1.3 potassium channel (human KCNA3 gene), sequence (P22001 whole entry): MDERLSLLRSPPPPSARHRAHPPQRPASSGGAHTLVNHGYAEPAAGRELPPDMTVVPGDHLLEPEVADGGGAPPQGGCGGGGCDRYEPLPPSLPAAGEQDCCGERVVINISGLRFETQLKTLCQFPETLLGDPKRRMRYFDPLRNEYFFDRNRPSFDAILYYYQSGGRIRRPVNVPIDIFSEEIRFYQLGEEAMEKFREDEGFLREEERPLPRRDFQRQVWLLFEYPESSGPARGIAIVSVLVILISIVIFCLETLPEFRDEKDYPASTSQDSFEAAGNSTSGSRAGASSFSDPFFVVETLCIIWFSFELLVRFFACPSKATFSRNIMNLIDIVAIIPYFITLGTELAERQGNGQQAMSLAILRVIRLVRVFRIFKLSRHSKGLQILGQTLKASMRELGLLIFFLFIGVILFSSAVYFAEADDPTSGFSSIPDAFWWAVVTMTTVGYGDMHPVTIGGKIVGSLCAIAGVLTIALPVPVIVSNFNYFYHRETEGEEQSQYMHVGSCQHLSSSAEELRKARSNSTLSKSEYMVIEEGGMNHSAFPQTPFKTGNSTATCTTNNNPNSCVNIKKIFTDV
For series [6], the target named is T2, Nav1.5 cardiac sodium channel (human SCN5A gene). Description: cell-based.
Series [7] concerns the target Nav1.3 sodium channel (human SCN3A gene) (Homo sapiens, UniProt Q9NY46). Description: cell-based. Further details: host or cells: CHO. The conditions noted are these: human Nav1.3 in CHO cells.
In another series the test system is panel of 20 ion channels. Type of series: cell-based. As to conditions: potassium channels of the panel; 0.2 or 20 μM; FIG. 2. As for the experimental part: This example describes a method for assaying ion channel activity in cells.
Peptides were screened in duplicate at final concentrations of 20 μM and 200 nM, as determined by amino acid analysis, and diluted into HEPES buffered physiological saline (HBPS). HEK293 or CHO cells from the American Type Culture Collection (ATCC) were transfected with the appropriate ion channel before use. HEK293 cells were grown in Dulbecco's Modified Eagle Medium/Nutrient Mixture F-12, and CHO cells were cultured in Ham's F-12 media. All cultures were supplemented with 10% fetal bovine serum, 100 U/ml penicillin G, 100 μg/ml streptomycin sulfate, and the appropriate selection antibiotics. Prior to use, cells were washed twice with Hank's Balanced Salt Solution, and treated with Accutase cell detachment solution (Sigma-Aldrich). Cells were then washed. Peptides and controls were incubated with cells for at least five minutes.
Percent inhibition was defined as: (1-(Ipeptide/Icontrol))×100%).
Percent values were calculated using the following formula: % activation=(IPeptide/Icontrol)×100%, where IPeptide is the current produced by co-application a peptide with agonist, and Icontrol refers to the current produced by stimulation in control. Control used for each ion channel is the reference compound matched to a particular channel, as illustrated in TABLE 10 below.

For series [8], the target named is Nav1.4 sodium channel (human SCN4A gene) (Homo sapiens, UniProt P35499). Description: cell-based. As to conditions: human Nav1.4 in CHO cells. More on the design: host or cells: CHO.
Another series deals with T3, Nav1.7 (Homo sapiens, UniProt Q15858).
T3 construct: host or cells: HEK293 or CHO
Description: cell-based. Type of series: cell-based. As to conditions: 0.2 or 20 μM; FIG. 2.

The next series addresses T4, Kv1.1 (Homo sapiens, UniProt Q09470).
T4 construct: host or cells: HEK293 or CHO
Description: cell-based. It counts as cell-based. As to conditions: Kv1.1; peptide at 20 μM; percentage of control, 100% = no change; read-out: Ion channel activity (ion channel inhibition). In outline:
as §1

Series [9] addresses T2, Nav1.5 cardiac sodium channel (human SCN5A gene). Description: in vitro.
The target in series [10] is T1, Kv1.3. The conditions noted are these: prior reports; cited from earlier work.
[11] abbreviates: Kv1.3, percentage of control, 100% = no change, read-out: Ion channel activity (ion channel inhibition).

pIC50: −log10 of the molar value. Like-named read-outs stand apart in the source and are kept apart here. Where a SMILES comes first, the peptide text is derived from it. Bridges are numbered along the chain shown (N, C = ends).

T1 sequence (P22001 whole entry): as above
Nav1.3 sodium channel (human SCN3A gene), sequence (Q9NY46 whole entry): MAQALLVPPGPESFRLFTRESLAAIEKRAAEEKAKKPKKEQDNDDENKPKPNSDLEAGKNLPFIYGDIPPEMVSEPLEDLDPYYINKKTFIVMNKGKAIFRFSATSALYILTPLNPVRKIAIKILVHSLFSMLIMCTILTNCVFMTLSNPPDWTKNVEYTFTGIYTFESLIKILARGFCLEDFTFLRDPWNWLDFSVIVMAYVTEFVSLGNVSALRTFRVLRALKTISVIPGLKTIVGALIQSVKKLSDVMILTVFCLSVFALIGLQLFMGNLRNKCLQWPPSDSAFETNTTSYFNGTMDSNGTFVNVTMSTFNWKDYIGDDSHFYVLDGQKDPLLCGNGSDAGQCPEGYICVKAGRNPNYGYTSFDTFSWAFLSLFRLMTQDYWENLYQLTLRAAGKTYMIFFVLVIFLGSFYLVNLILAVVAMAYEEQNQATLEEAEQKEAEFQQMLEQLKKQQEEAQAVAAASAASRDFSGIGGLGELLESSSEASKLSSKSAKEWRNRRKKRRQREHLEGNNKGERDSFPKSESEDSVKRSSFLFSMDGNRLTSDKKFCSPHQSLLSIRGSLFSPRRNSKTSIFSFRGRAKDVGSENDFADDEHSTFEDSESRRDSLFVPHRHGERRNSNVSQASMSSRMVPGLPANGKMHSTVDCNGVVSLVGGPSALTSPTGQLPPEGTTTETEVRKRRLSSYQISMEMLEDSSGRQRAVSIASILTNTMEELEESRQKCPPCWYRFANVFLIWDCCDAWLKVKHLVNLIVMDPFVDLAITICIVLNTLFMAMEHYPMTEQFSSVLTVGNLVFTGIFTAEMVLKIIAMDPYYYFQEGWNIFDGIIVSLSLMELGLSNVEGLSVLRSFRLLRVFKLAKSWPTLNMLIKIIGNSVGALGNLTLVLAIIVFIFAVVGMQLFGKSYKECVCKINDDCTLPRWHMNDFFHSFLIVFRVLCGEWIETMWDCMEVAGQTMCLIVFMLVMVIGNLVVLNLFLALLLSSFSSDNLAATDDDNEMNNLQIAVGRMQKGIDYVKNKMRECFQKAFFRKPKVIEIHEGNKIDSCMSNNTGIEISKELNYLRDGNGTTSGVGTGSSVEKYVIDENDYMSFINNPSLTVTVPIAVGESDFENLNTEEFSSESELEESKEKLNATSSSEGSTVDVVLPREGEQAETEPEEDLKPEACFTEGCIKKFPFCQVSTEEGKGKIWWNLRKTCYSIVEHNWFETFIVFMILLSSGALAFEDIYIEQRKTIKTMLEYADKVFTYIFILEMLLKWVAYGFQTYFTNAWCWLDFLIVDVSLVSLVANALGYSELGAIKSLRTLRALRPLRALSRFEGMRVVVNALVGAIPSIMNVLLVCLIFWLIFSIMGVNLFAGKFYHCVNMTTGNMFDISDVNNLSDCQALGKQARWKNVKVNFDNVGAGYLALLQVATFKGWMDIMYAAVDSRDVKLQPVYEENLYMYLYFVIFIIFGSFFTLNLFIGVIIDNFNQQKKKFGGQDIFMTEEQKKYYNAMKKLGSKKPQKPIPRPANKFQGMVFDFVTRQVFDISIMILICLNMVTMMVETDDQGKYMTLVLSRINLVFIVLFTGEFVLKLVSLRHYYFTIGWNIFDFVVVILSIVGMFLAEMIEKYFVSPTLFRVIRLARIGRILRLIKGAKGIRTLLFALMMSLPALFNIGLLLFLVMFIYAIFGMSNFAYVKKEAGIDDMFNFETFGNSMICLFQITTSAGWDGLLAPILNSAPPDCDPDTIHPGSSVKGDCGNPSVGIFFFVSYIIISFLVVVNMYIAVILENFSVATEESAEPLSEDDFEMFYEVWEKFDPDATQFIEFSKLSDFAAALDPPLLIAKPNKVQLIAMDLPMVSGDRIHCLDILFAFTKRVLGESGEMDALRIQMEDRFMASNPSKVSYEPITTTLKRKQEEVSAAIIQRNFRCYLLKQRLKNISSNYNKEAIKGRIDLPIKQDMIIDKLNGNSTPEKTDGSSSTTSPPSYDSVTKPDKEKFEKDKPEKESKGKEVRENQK
T4 sequence (Q09470 whole entry): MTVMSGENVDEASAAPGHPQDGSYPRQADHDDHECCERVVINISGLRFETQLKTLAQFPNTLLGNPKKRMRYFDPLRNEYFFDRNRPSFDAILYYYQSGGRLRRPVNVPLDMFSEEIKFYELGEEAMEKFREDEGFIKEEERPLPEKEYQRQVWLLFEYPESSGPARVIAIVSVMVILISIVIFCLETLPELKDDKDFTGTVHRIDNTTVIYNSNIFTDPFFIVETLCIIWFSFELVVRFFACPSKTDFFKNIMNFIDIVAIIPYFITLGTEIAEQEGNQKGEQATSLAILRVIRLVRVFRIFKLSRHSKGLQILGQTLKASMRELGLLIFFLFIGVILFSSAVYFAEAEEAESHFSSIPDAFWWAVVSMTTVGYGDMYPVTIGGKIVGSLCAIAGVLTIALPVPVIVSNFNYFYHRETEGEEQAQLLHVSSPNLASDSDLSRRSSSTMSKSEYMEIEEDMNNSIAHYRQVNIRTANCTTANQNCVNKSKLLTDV

For the compound `CC[C@H](C)[C@@H]1NC(=O)[C@@H]2CSSC[C@H](NC(=O)[C@H](CCCCN)NC(=O)[C@@H](NC(=O)[C@H](CC(N)=O)NC(=O)[C@@H](NC(=O)[C@@H]3CCCN3C(=O)[C@@H](NC(=O)CNC(=O)[C@H](CO)NC(=O)CN)C(C)C)[C@@H](C)CC)C(C)C)C(=O)N[C@@H](CCCNC(=N)N)C(=O)NCC(=O)N[C@@H](CO)C(=O)N[C@@H](CCCNC(=N)N)C(=O)N[C@@H](CC(=O)O)C(=O)N[C@H]3CSSC[C@H](NC(=O)[C@H](CCCCN)NC(=O)[C@H](CO)NC(=O)[C@H](CC(N)=O)NC1=O)C(=O)N[C@@H](Cc1c[nH]cn1)C(=O)N[C@H](C(=O)N[C@H](C(=O)N1CCC[C@H]1C(=O)O)[C@@H](C)O)CSSC[C@H](NC(=O)[C@@H]1CCCN1C(=O)[C@H](CC(=O)O)NC(=O)[C@H](CC(C)C)NC3=O)C(=O)N[C@@H](CCCCN)C(=O)N[C@@H](CCCCN)C(=O)N[C@@H](C)C(=O)NCC(=O)N[C@@H](CCSC)C(=O)N[C@@H](CCCNC(=N)N)C(=O)N[C@@H](Cc1ccccc1)C(=O)NCC(=O)N[C@@H](CCCCN)C(=O)N2` [SEQ ID NO: 5] (H-GSGVPINVKCRGSRDCLDPCKKAGMRFGKCINSKCHCTP-OH; disulfide 10-30, 16-35, 20-37), on hERG, the “Activity against / inhibition of hERG (Kv11.1)” value is on record as “showed additional activity”. For the same compound, the activity at 20 µM at Kv1.3 [1] (setting [11]) is under 50%. Moreover, the pIC50 is under 6.00 in series [2] (TP1 (tonic inhibition), read-out: IC50 Nav1.7 ion channel inhibition, TP1); under 6.00 in series [2] (TP2 (inactivated state inhibition), read-out: IC50 Nav1.7 ion channel inhibition, TP2); under 6.00 in series [3]; under 6.00 in [4] (test pulse TP1, read-out: IC50 Kv1.5 ion channel inhibition, TP1); under 6.00 in series [4] (test pulse TP6, read-out: IC50 Kv1.5 ion channel inhibition, TP6); under 6.00 in series [5] (test pulse TP1, read-out: IC50 Kv1.3 ion channel inhibition, TP1). The pIC50 was under 6.00 in [5] (test pulse TP6, read-out: IC50 Kv1.3 ion channel inhibition, TP6); under 6.00 in series [6]; under 6.00 in series [7] (TP1 (tonic inhibition), read-out: IC50 Nav1.3 ion channel inhibition, TP1); under 6.00 in series [7] (TP2 (inactivated state inhibition), read-out: IC50 Nav1.3 ion channel inhibition, TP2); under 6.00 in series [8] (TP1 (tonic inhibition), read-out: IC50 Nav1.4 ion channel inhibition, TP1); under 6.00 in series [8] (TP2 (inactivated state inhibition), read-out: IC50 Nav1.4 ion channel inhibition, TP2). The “Activity on potassium channels” value with panel of 20 ion channels is “active on a subset of potassium channels”. The “Activity against Nav1.7 channels” value on Nav1.7 was “showed additional activity”.
With `CC[C@H](C)[C@H](NC(=O)[C@H](CCCNC(=N)N)NC(=O)[C@@H](NC(=O)[C@H](CO)NC(=O)CN)C(C)C)C(=O)N1CCC[C@H]1C(=O)N[C@H](C(=O)N[C@@H](CO)C(=O)N[C@H]1CSSC[C@@H]2NC(=O)[C@H](CCCCN)NC(=O)CNC(=O)[C@H](Cc3ccccc3)NC(=O)[C@H](CCCNC(=N)N)NC(=O)[C@H](CCSC)NC(=O)CNC(=O)[C@H](C)NC(=O)[C@H](CC(=O)O)NC(=O)[C@H](CCCCN)NC(=O)[C@@H]3CSSC[C@@H](C(=O)N[C@H](C(=O)N4CCC[C@H]4C(=O)N[C@@H](CCCCN)C(=O)O)[C@@H](C)O)NC(=O)[C@H](CC(=O)O)NC(=O)[C@H](CSSC[C@H](NC(=O)[C@H](CCC(N)=O)NC(=O)CNC(=O)[C@H](CO)NC(=O)[C@H](Cc4c[nH]cn4)NC(=O)[C@H](CCCCN)NC1=O)C(=O)N[C@@H](CC(C)C)C(=O)N[C@@H](CCCCN)C(=O)N1CCC[C@H]1C(=O)N3)NC(=O)[C@H](CCCCN)NC(=O)CNC(=O)[C@H](CC(N)=O)NC(=O)[C@H](CCSC)NC2=O)C(C)C` [SEQ ID NO: 6] (H-GSVRIPVSCKHSGQCLKPCKDAGMRFGKCMNGKCDCTPK-OH; disulfide 9-29, 15-34, 19-36), the activity at 20 µM at Kv1.1 and at Kv1.3 [1] (setting [11]) was under 50% throughout. Further, the activity at 0.2 µM at Kv1.3 [1] (Kv1.3, peptide at 0.2 μM, percentage of control, 100% = no change, read-out: Ion channel activity (ion channel inhibition)) is under 80%. For the same compound, the pIC50 in series [9] is under 6.00. Further, the “Activity on potassium channels” value with panel of 20 ion channels was “active on a subset of potassium channels”.
Turning to “GSNFKVEGACSKPCRKYCIDKGARNGKCINGRCHCYY [SEQ ID NO: 12]”, the Kv1.3 inhibition entry at Kv1.3 [1] (0.2 or 20 μM, FIG. 2) is “inhibit Kv1.3, consistent with these results”. On Kv1.3 [10], the “Kv1.3 inhibition, previously reported” value is on record as “previously reported to inhibit Kv1.3”.

The pIC50 is −log10 of the IC50, conventionally taken in molar units.
